In article PMC10226132, “First-in-Class Selective Inhibitors of the Lysine Acetyltransferase KAT8” (Journal of Medicinal Chemistry, 2023):
Read-outs that look alike come from different tables or passages of the source.

Tests used:
Format in all cases: biochemical
KAT8 = biological target: T1, KAT8 (Homo sapiens, UniProt Q9H7Z6); test: Radioactive KAT8 inhibition assay
T1 construct: using the previously purified KAT8 (173–458, 5 nM); 6xHis tag with TEV protease cleavage site (N, cleaved yes); made in house; host or cells: E. coli BL21(DE3)
T1 sequence (Q9H7Z6 173-458): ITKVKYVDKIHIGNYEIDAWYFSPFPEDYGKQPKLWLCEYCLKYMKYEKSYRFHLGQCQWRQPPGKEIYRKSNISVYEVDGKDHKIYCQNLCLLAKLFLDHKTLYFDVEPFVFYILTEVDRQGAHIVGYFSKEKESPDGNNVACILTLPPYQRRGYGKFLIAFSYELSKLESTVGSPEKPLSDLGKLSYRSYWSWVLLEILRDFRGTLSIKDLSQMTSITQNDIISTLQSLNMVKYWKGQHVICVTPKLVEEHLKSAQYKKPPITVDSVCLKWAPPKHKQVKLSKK
Procedure: Purified KAT8 was incubated with the relevant inhibitor (1% DMSO final) in a 2-fold serial dilution starting at 200 μM for 20 min at rt. Then, [^3H]Ac-CoA and biotinylated peptide were added to a total assay volume of 50 μL and the reaction mixture was incubated at rt for 4 h. The reaction was stopped, and the mixture was transferred to a 96-well streptavidin scintillant coated FlashPlate (Perkin Elmer) and incubated for 60 min at rt. The FlashPlate was washed with 0.1% Tween-20, and the liquid scintillation counting (MicroBeta Microplate Counter, Perkin Elmer) was employed to measure the radioactive signal. Experiments were performed in biological triplicates. Signal reduction compared to control was plotted (as inhibition percentage) as a function of compound concentration and fitted by nonlinear regression (GraphPad Prism 8.0) finally yielding the IC50 values.

KAT3B = biological target: T2, KAT3B (Homo sapiens, UniProt Q09472); test: HotSpot KAT assay, KAT3B; conditions: read-out: IC50 KAT3B (1 nM); enzyme 1 nM; NI = no inhibition at 200 μM; mean ± SD of three independent experiments
T2 construct: KAT3B (aa 1284–1672, 1 nM); purchased Reaction Biology Corporation
T2 sequence (Q09472 1284-1672): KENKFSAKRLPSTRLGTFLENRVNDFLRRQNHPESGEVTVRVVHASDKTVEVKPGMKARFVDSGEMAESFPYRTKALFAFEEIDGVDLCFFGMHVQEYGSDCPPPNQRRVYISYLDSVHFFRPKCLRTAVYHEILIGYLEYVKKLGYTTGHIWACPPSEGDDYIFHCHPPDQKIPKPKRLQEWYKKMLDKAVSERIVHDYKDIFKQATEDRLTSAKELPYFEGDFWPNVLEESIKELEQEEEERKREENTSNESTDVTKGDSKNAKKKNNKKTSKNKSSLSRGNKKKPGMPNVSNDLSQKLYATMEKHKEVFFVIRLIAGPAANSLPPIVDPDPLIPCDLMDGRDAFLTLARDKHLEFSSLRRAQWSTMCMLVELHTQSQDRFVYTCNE
Procedure: The effects of the compounds on other KATs were determined using the HotSpot KAT assay (Reaction Biology Corporation, Malvern, PA, USA) according to the supplier’s procedure. […] Histone peptide acetylation was assessed by liquid scintillation counting using a Tri-Carb 2800TR Liquid Scintillation Analyzer (Perkin Elmer). Experiments were performed in biological triplicates. Signal reduction compared to control was plotted (as inhibition percentage) as a function of compound concentration. In cases in which an IC50 was calculated, the values were fitted by nonlinear regression (GraphPad Prism 8.0).

KAT2B = biological target: T3, KAT2B (Homo sapiens, UniProt Q92831); test: HotSpot KAT assay, KAT2B; conditions: enzyme 25 nM; NI = no inhibition at 200 μM; mean ± SD of three independent experiments
T3 construct: KAT2B (aa 492–658, 25 nM); purchased Reaction Biology Corporation
Procedure: The effects of the compounds on other KATs were determined using the HotSpot KAT assay (Reaction Biology Corporation, Malvern, PA, USA) according to the supplier’s procedure. The recombinant catalytic domains of human KAT2A (aa 323–837, 15 nM), KAT2B (aa 492–658, 25 nM), KAT3B (aa 1284–1672, 1 nM), KAT6A (aa 488–778, 10 nM), KAT6B (aa 657–1069, 10 nM), and full length human KAT5 (25 nM) and KAT7 (25 nM) were used. Each enzyme was incubated with the relevant histone peptide [H3 peptide for KAT2A, KAT2B, KAT3B, KAT6A, and KAT7 (2.5–5 μM, depending on the KAT isoform); H2A peptide for KAT5 (1.25 μM); H4 peptide for KAT6B (2.5 μM)] as a substrate and radio-isotope-labeled [^3H]Acetyl-CoA (0.2–1.5 μM, depending on the KAT isoform) as an acetyl donor in the assay buffer [50 mM Tris–HCl (pH 8.0), 50 mM NaCl, 0.1 mM EDTA, 1 mM DTT, 0.1 mM PMSF, 1% DMSO] for 1 h at 30 °C in the presence or absence of various compounds (1% DMSO final) titrated in a 2-fold serial dilution starting at 200 μM. Histone peptide acetylation was assessed by liquid scintillation counting using a Tri-Carb 2800TR Liquid Scintillation Analyzer (Perkin Elmer). Experiments were performed in biological triplicates. Signal reduction compared to control was plotted (as inhibition percentage) as a function of compound concentration. In cases in which an IC50 was calculated, the values were fitted by nonlinear regression (GraphPad Prism 8.0).

[1] = read-out: IC50 KAT8 (5 nM), enzyme 5 nM, 2-fold serial dilution from 200 μM, NI = no inhibition at 200 μM, mean ± SD of three independent experiments

T3 sequence (Q92831 492-658): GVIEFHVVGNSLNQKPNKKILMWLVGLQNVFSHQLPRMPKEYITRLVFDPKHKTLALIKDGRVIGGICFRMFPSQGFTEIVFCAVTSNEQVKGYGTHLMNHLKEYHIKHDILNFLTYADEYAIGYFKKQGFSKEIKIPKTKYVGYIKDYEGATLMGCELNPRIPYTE

SMILES	IC50 (KAT8; [1]) [µM]	also measured
CC1=NN(c2ccc(C(=O)N(C)C)cc2)C(=O)/C1=C\c1ccc[nH]1 [Compound 38, (Z)-4-(4-((1H-Pyrrol-2-yl)methylene)-3-methyl-5-oxo-4,5-dihydro-1H-pyrazol-1-yl)-N,N-dimethylbenzamide]	29.5 ± 1.8	IC50 (KAT3B): > 200 µM; IC50 (KAT2B): > 200 µM
CC(C)C1=NN(c2ccc(C(=O)O)cc2)C(=O)/C1=C\c1cc(C(=O)c2ccccc2[N+](=O)[O-])c[nH]1 [Compound 15, (Z)-4-(3-Isopropyl-4-((4-(2-nitrobenzoyl)-1H-pyrrol-2-yl)methylene)-5-oxo-4,5-dihydro-1H-pyrazol-1-yl)benzoic Acid]		IC50 (KAT8): > 150 µM; IC50 (KAT2B): > 200 µM
CC1=NN(c2ccc(S(=O)(=O)O)cc2)C(=O)/C1=C\c1ccc[nH]1 [Compound 42, (Z)-4-(4-((1H-Pyrrol-2-yl)methylene)-3-methyl-5-oxo-4,5-dihydro-1H-pyrazol-1-yl)benzenesulfonic Acid]	54.7 ± 4	
CC1=NN(c2ccccc2)C(=O)/C1=C\c1cc(C(=O)c2ccccc2[N+](=O)[O-])c[nH]1 [Compound 17, (Z)-5-Methyl-4-((4-(2-nitrobenzoyl)-1H-pyrrol-2-yl)methylene)-2-phenyl-2,4-dihydro-3H-pyrazol-3-one]	> 200	
CC1=NN(c2ccc(C(=O)O)cc2)C(=O)/C1=C\c1cc(C(=O)c2ccc(Cl)cc2)c[nH]1 [Compound 7, (Z)-4-(4-((4-(4-Chlorobenzoyl)-1H-pyrrol-2-yl)methylene)-3-methyl-5-oxo-4,5-dihydro-1H-pyrazol-1-yl)benzoic Acid]	> 200	
CC1=NN(c2ccc(C(=O)O)cc2)C(=O)/C1=C\c1cc(C(=O)c2ccccc2O)c[nH]1 [Compound 12, (Z)-4-(4-((4-(2-Hydroxybenzoyl)-1H-pyrrol-2-yl)methylene)-3-methyl-5-oxo-4,5-dihydro-1H-pyrazol-1-yl)benzoic Acid]	> 200	
CC1=NN(c2ccc(C(=O)O)cc2)C(=O)/C1=C\c1cc(C(=O)c2ccccc2F)c[nH]1 [Compound 8, (Z)-4-(4-((4-(2-Fluorobenzoyl)-1H-pyrrol-2-yl)methylene)-3-methyl-5-oxo-4,5-dihydro-1H-pyrazol-1-yl)benzoic Acid]	> 150	
CC1=NN(c2ccc(C(=O)O)cc2)C(=O)/C1=C\c1cc(C(=O)c2cccc(C)c2)c[nH]1 [Compound 14, (Z)-4-(3-Methyl-4-((4-(3-methylbenzoyl)-1H-pyrrol-2-yl)4ethylene)-5-oxo-4,5-dihydro-1H-pyrazol-1-yl)benzoic Acid]	> 200	
CC1=NN(c2ccc(C(=O)NCCO)cc2)C(=O)/C1=C\c1ccc[nH]1 [Compound 40, (Z)-4-(4-((1H-Pyrrol-2-yl)methylene)-3-methyl-5-oxo-4,5-dihydro-1H-pyrazol-1-yl)-N-(2-hydroxyethyl)benzamide]	52.2 ± 3.2	
CC1=NN(c2ccc(C(=O)O)cc2)C(=O)C1 [Compound 18]	> 200	
CC1=NN(c2ccc(S(N)(=O)=O)cc2)C(=O)/C1=C\c1ccc[nH]1 [Compound 43, (Z)-4-(4-((1H-Pyrrol-2-yl)methylene)-3-methyl-5-oxo-4,5-dihydro-1H-pyrazol-1-yl)benzenesulfonamide]	59.4 ± 3.7	
CC1=NN(c2ccc(C(=O)O)cc2)C(=O)/C1=C\c1cc(C(=O)c2cccc(Cl)c2)c[nH]1 [Compound 6, (Z)-4-(4-((4-(3-Chlorobenzoyl)-1H-pyrrol-2-yl)methylene)-3-methyl-5-oxo-4,5-dihydro-1H-pyrazol-1-yl)benzoic Acid]	> 150	
COc1ccccc1C(=O)c1c[nH]c(/C=C2\C(=O)N(c3ccc(C(=O)O)cc3)N=C2C)c1 [Compound 10, (Z)-4-(4-((4-(2-Methoxybenzoyl)-1H-pyrrol-2-yl)methylene)-3-methyl-5-oxo-4,5-dihydro-1H-pyrazol-1-yl)benzoic Acid]		IC50 (KAT8): > 150 µM
CC1=NN(c2ccc(C(=O)O)cc2)C(=O)/C1=C\c1cc(C(=O)c2cccc([N+](=O)[O-])c2)c[nH]1 [Compound 3, (Z)-4-(3-Methyl-4-((4-(3-nitrobenzoyl)-1H-pyrrol-2-yl)methylene)-5-oxo-4,5-dihydro-1H-pyrazol-1-yl)benzoic Acid]	> 150	

Now from value to compound, other results behind:

IC50 (KAT8; [1]) [µM]	SMILES	also measured
86.2 ± 10	CC1=NN(c2ccc(C(=O)O)cc2)C(=O)/C1=C\c1cc(C(=O)c2ccccc2[N+](=O)[O-])c[nH]1 [Compound 2, (Z)-4-(3-Methyl-4-((4-(2-nitrobenzoyl)-1H-pyrrol-2-yl)methylene)-5-oxo-4,5-dihydro-1H-pyrazol-1-yl)benzoic Acid]	IC50 (KAT3B): 9.1 ± 0.6 µM; IC50 (KAT2B): > 200 µM
33.2 ± 2.4	CC1=NN(c2ccc(C(N)=O)cc2)C(=O)/C1=C\c1ccc[nH]1 [Compound 37, (Z)-4-(4-((1H-Pyrrol-2-yl)methylene)-3-methyl-5-oxo-4,5-dihydro-1H-pyrazol-1-yl)benzamide]	IC50 (KAT3B): > 200 µM; IC50 (KAT2B): > 200 µM
> 200	CC1=NN(c2ccc(C(=O)NCCCN3CCCC3)cc2)C(=O)/C1=C\c1ccc[nH]1 [Compound 41, (Z)-4-(4-((1H-Pyrrol-2-yl)methylene)-3-methyl-5-oxo-4,5-dihydro-1H-pyrazol-1-yl)-N-(3-(pyrrolidin-1-yl)propyl)benzamide]	
> 200	CC1=NN(c2ccc(C(=O)O)cc2)C(=O)/C1=C\c1cc(C(=O)c2ccc([N+](=O)[O-])cc2)c[nH]1 [Compound 4, (Z)-4-(3-Methyl-4-((4-(4-nitrobenzoyl)-1H-pyrrol-2-yl)methylene)-5-oxo-4,5-dihydro-1H-pyrazol-1-yl)benzoic Acid]	
> 200	CC1=NN(c2ccccc2)C(=O)/C1=C\c1cc(C(=O)c2ccccc2)c[nH]1 [Compound 16, (Z)-4-((4-Benzoyl-1H-pyrrol-2-yl)methylene)-5-methyl-2-phenyl-2,4-dihydro-3H-pyrazol-3-one]	
> 200	COc1cccc(C(=O)c2c[nH]c(/C=C3\C(=O)N(c4ccc(C(=O)O)cc4)N=C3C)c2)c1 [Compound 11, (Z)-4-(4-((4-(3-Methoxybenzoyl)-1H-pyrrol-2-yl)methylene)-3-methyl-5-oxo-4,5-dihydro-1H-pyrazol-1-yl)benzoic Acid]	
> 200	CC1=NN(c2ccc(C(=O)O)cc2)C(=O)/C1=C\c1cc(C(=O)c2cccc(F)c2)c[nH]1 [Compound 9, (Z)-4-(4-((4-(3-Fluorobenzoyl)-1H-pyrrol-2-yl)methylene)-3-methyl-5-oxo-4,5-dihydro-1H-pyrazol-1-yl)benzoic Acid]	
